{"source": "paper PMC11652885", "about": "“Natural volatiles preventing mosquito biting: An integrated screening platform for accelerated discovery of ORco antagonists” (The Journal of Biological Chemistry, 2024)", "tested_on": "Aedes albopictus", "experiment": "Hand in a cage repellence bioassay (human hand landing counts)", "assay_type": "in vivo", "conditions": "dose 50 nmole/cm^2; preliminary tests, data not shown"}
{"smiles": "Cc1ccc2ccccc2n1", "note": "[compound 66, 2-Methylquinoline]", "values": [{"measurement": "repellence index (RI)", "result": "high activities"}]}
{"smiles": "CC(C)CCCCCCCCC=CCC#N", "note": "[compound 83, 13-Methyltetradec-3-ene nitrile]", "values": [{"measurement": "repellence index (RI)", "result": "high activities"}]}
{"smiles": "CC1(C)C2CCC1(C)C(O)C2", "note": "(centres unmarked) [compound 64, Borneol]", "values": [{"measurement": "repellence index (RI)", "result": "high activities"}]}
{"smiles": "CCCCC/C=C\\CCO", "note": "[compound 54, (Z)-3-Nonen-1-ol]", "values": [{"measurement": "repellence index (RI)", "result": "30%-50%"}]}
{"smiles": "CCCC=CC=CC=O", "note": "[compound 39, 2,4-Octadienal]", "values": [{"measurement": "repellence index (RI)", "result": "30%-50%"}]}
{"smiles": "CC1(C)C2CC3OC3(C)C1C2", "note": "(stereo not drawn) [compound 62, α-Pinene oxide]", "values": [{"measurement": "repellence index (RI)", "result": "30%-50%"}]}
{"smiles": "CC(C)=CCC[C@](C)(O)[C@@H]1CC=C(C)CC1", "note": "[compound 77, α-Bisabolol]", "values": [{"measurement": "repellence index (RI)", "result": "30%-50%"}]}
{"smiles": "CC(C)C/C=C1/C(=O)OCC1C", "note": "(centres unmarked) [compound 98, (E)-3-Methyl-2-(3-methylbutyliden)-4-butanolide]", "values": [{"measurement": "repellence index (RI)", "result": "high activities"}]}
